From ChEMBL document CHEMBL4699496, “Exploring efficacy of natural-derived acetylphenol scaffold inhibitors for α-glucosidase: Synthesis, in vitro and in vivo biochemical studies” (Bioorg Med Chem Lett, 2020)
Calls of active or inactive are those of the source. The calls are words filed in the database; no cut-off is given here.

Columns and labels:
Rattus norvegicus [1] = organism: Rattus norvegicus; experiment: Inhibition of alpha-glucosidase in rat everted intestinal sleeves assessed as reduction in glucose concentration outside of the intestinal sleeves at 0.5 mM measured after 5 to 90 mins; assay type: tissue-based; details: Intestine, time min 5-90
Mus musculus [2] = organism: Mus musculus; experiment: Hypoglycemic activity in Kunming mouse assessed as reduction in maltose-induced blood glucose AUC (0 to 120 mins) by maltose loading test; assay type: functional, organism-based; details: time min 0-120
[3] = Inhibition of alpha-glucosidase (unknown origin); parameters: species or system Homo sapiens; details: read-out: IC50
Rattus norvegicus [4] = organism: Rattus norvegicus; experiment: Inhibition of alpha-glucosidase in rat everted intestinal sleeves assessed as reduction in blood glucose AUC (0-90) within intestinal sleeves at 0.5 mM; assay type: tissue-based; details: Intestine, time min 0-90
Mus musculus [5] = organism: Mus musculus; experiment: Hypoglycemic activity in Kunming mouse assessed as reduction in maltose-induced postprandial blood glucose level measured after 15 to 120 mins by maltose loading test; assay type: functional, organism-based; details: time min 15-120
Rattus norvegicus [6] = organism: Rattus norvegicus; experiment: Inhibition of alpha-glucosidase in rat everted intestinal sleeves assessed as reduction in blood glucose AUC (0-90) outside of the intestinal sleeves at 0.5 mM; assay type: tissue-based; details: Intestine, time min 0-90
Rattus norvegicus [7] = organism: Rattus norvegicus; experiment: Inhibition of alpha-glucosidase in rat everted intestinal sleeves assessed as reduction in glucose concentration within intestinal sleeves at 0.5 mM measured for 5 to 90 mins; assay type: tissue-based; details: Intestine, time min 5-90

With `C[C@H]1O[C@H](O[C@H]2[C@H](O)[C@@H](O)[C@@H](O[C@H]3[C@H](O)[C@@H](O)C(O)O[C@@H]3CO)O[C@@H]2CO)[C@H](O)[C@@H](O)[C@@H]1N[C@H]1C=C(CO)[C@@H](O)[C@H](O)[C@H]1O` (some centres not stated) [ACARBOSE] the inhibition (Rattus norvegicus [1]) was “Active”, the Activity (Mus musculus [2]) was “Active” and the IC50 [3] was 57 µM. For the same compound, the inhibition (Rattus norvegicus [4]) was “Active”, the Activity (Mus musculus [5]) was “Active” and the inhibition (Rattus norvegicus [6]) was “Active”. For the same compound, the inhibition (Rattus norvegicus [7]) was “Active”.
